# Data published in patent publication US20090203734A1, “F1F0-ATPASE INHIBITORS AND RELATED METHODS” (The Regents of the University of Michigan, priority 2008, published 2009).
# Assays:
# bovine F1Fo-ATPase [1] = target: T1, bovine F1Fo-ATPase (Bos taurus, UniProt P13621); assay: ATP hydrolysis by F1Fo-ATPase in bovine submitochondrial particles (SMPs); type: biochemical
# T1 construct: bovine F1Fo-ATPase present in submitochondrial particles (SMPs); from tissue
# bovine F1Fo-ATPase [2] = target: T1, bovine F1Fo-ATPase; assay: ATP synthesis by F1Fo-ATPase in bovine submitochondrial particles (SMPs); type: biochemical
# Ramos B cells [3] = assay: Early superoxide (O2-, ROS) response in Ramos B cells; type: cell-based; conditions: Homo sapiens, O2- response 1 h following incubation with drug
# Method: (§1) Since an early mitochondrial superoxide (O2^−) mediates apoptosis induced by Bz-423, the O2^− response of cells 1 h following incubation with drug was examined, as well as cell death at 24 h, as previously described (see, e.g., Blatt, N. B., et al., 2002 J Clin Invest 110, 1123-1132; incorporated herein by reference in its entirety).
# Jurkat T cells [4] = assay: Early superoxide (O2-, ROS) response in Jurkat T cells; type: cell-based; conditions: Homo sapiens, O2- response 1 h following incubation with drug
# Method: as §1
# Ramos B cells [5] = assay: Cell death in Ramos B cells; type: cell-based; conditions: Homo sapiens, cell death at 24 h
# Method: as §1
# Jurkat T cells [6] = assay: Cell death in Jurkat T cells; type: cell-based; conditions: Homo sapiens, cell death at 24 h
# Method: as §1
# [7] = bovine SMPs, drug 0-300 μM, read-out: ATPase activity EC50, Hydrolysis
# [8] = read-out: ATPase activity EC50, Synthesis
SMILES,EC50 (bovine F1Fo-ATPase [1]; [7]) [µM],EC50 (bovine F1Fo-ATPase [2]; [8]) [µM],EC50 (bovine F1Fo-ATPase [1]) [µM],"EC50 (bovine F1Fo-ATPase [2]; ATPase activity EC50, Synthesis) [µM]",EC50 (Ramos B cells [3]) [µM],EC50 (Jurkat T cells [4]) [µM],EC50 (Ramos B cells [5]) [µM],EC50 (Jurkat T cells [6]) [µM]
"O=C1CN=C(c2ccccc2Cl)c2cc([N+](=O)[O-])ccc2N1 [Cz, clonazepam]",240,120,,,,,,
CN1C(=O)C(Cc2ccc3ccccc3c2)N=C(c2ccc(O)cc2)c2cc(Cl)ccc21 (stereo not drawn) [Bz-423],8.9,5.5,,,,,,
"CN1C(=O)CN=C(c2ccc(Cl)cc2)c2cc(Cl)ccc21 [Compound 4-Cl-Dz, 4-chlorodiazepam]",> 300,210,,,,,,
"CN1C(=O)CN=C(c2ccccc2)c2cc(Cl)ccc21 [Dz, diazepam]",,,> 300,210,170,200,250,170
